The record followed here is patent US8470807B2, “Antioxidant” (Morinaga Milk Industry Co., Ltd., priority 2008, dated 2013).

Experiment [1] relates to ApoE gene-deficient mice. In words: Inhibition of lipid peroxide formation in blood (serum TBARS/MDA) in ApoE gene-deficient mice. The settings on record: 30 μg per day; for Amount of lipid peroxide in blood (MDA concentration): serum, 14 days after start of administration, oral once a day, high-cholesterol diet. It counts as in vivo, mouse. From the text:
The actions of inhibiting formation of a lipid peroxide of various test samples including the antioxidant of the present invention can be evaluated by using, as an index, the amount of a thiobarbituric acid (TBA) reactive substance (TBARS), for example. Specifically, it may be defined that the larger the amount of the TBARS, the larger the amount of a lipid peroxide formed.
Examples of the TEARS include malondialdehyde (MDA) which reacts with TBA under high-temperature and acidic conditions and is a natural by-product of a lipid peroxidation. An MDA-TBA adduct can be detected by measurement of an absorbance at 530 to 540 nm to perform colorimetric measurement of MDA.
Also, the action of inhibiting formation of a lipid peroxide of a test sample can be evaluated using ApoE gene-deficient mice, which are often used as model animals which develop arteriosclerosis by hypercholesterolemia (hyper-LDL-cholesterolemia) (for example, see Reference Document 1: “Saibokogaku (Cell Engineering),” Extra Issue, “Medical Experiment Manual” series, Strategy for Study of Arteriosclerosis+Hyperlipidemia, Shujunsha Co., 1st edition, 1st impression, published on Apr. 1, 1996, pp. 441-443).
Further, in the model mice, the lipid peroxide level is higher than that of normal mice, and formation of atherosclerotic lesions (plagues) in the artery is observed with time. Therefore, the action of inhibiting formation of a lipid peroxide of a test sample can be evaluated by administering the test sample to the model mice and measuring a lipid peroxide in blood of the model mice.
Those samples were separately dissolved in propylene glycol, and diluted with distilled water so as to obtain test solutions with the concentration of each compound of 30 μg/ml, and the solutions were used for a test. Note that physiological saline was used as a negative sample.
(§1) Six-week-old male ApoE gene-deficient mice (purchased from Japan SLC, Inc.) were preliminarily fed with a high-cholesterol diet (manufactured by Research Diets, Inc.) for 2 weeks and divided into groups each of 15 mice.
To mice of each group, the test solution including the test samples 1 to 6, control sample, or negative sample was separately administered orally once a day for […] using medical probes in an amount of 1 ml per 25 g of mouse body weight. At an early period after the start of administration (14 days after the start of administration), blood was collected from the tail vein of each mouse, and serum was separated. Then, the amount of TBARS was measured using OxiSelect TBARS Assay Kit (manufactured by […]). Meanwhile, as a control, blood was collected from each normal mouse in the same manner as above.

Experiment [2] deals with ApoE gene-deficient mice. In words: Number of atherosclerotic lesions (plaques) in thoracic aorta of ApoE gene-deficient mice. The format is in vivo, mouse. The following applies: 40 days after start, oral once a day for 39 consecutive days; for Number of plaques formed in thoracic aorta: 1 ml of 30 μg/ml per 25 g body weight, Oil red staining.
Description: In addition, it is generally known that a primary lesion of arteriosclerosis is caused by oxidized LDL. Therefore, it is also possible to evaluate the action of reducing a risk of arteriosclerosis through inhibiting formation of a lipid peroxide of the test sample by counting the number of atherosclerotic lesions (plaques) in the artery of each model mouse treated with the test sample.
In Example 2, a cyclolanostane compound, a lophenol compound, and a mixture of the cyclolanostane compound and the lophenol compound were each evaluated on the effect of reducing a risk of arteriosclerosis through the effect of inhibiting a lipid peroxide by counting the number of atherosclerotic lesions (plaques) in the artery using known arteriosclerosis model animals, ApoE gene-deficient mice.
Test samples 1 to 6, a control sample, and a negative sample were prepared in the same way as in Example 1 above and were each used for a test.
as §1
To mice of each group, the sample solution including the test samples, control sample, or negative sample was separately administered orally once a day for 39 consecutive days using medical probes in an amount of 1 ml per 25 g of mouse body weight. Forty days after the start of administration, the thoracic aorta part was fixed with formalin and stained with Oil red, and the number of plaques was counted.

Take `CCC(CCC(C)C1CCC2C3=CCC4C(C)C(O)CCC4(C)C3CCC21C)C(C)C` (centres unmarked) [Test sample 5, 4-methylstigmast-7-en-3-ol]: the “Amount of lipid peroxide in blood (MDA concentration)” value (“Amount of lipid peroxide in blood” for short) in the experiment with ApoE gene-deficient mice [1] was determined as 0.72 ± 0.02 µM. Further, the “Number of plaques formed in thoracic aorta” value (from here on “Number of plaques formed”) with ApoE gene-deficient mice [2] is 5.6 ± 2.1.
On the same counts, the results for `CC(C)C(C)CCC(C)C1CCC2C3=CCC4C(C)C(O)CCC4(C)C3CCC21C` (centres unmarked) [Test sample 4, 4-methylergost-7-en-3-ol] are 0.69 ± 0.05 µM and 5.0 ± 1.4.
In the same order, the values of `C=C(CCC(C)C1CCC2(C)C3CCC4C(C)(C)C(O)CCC45CC35CCC12C)C(C)C` (centres unmarked) [Test sample 2, 24-methylene-9,19-cyclolanostan-3-ol] are 0.5 ± 0.19 µM and 5.6 ± 1.5.
In the same order, the values of `CC(C)CCC[C@@H](C)[C@H]1CC[C@H]2C3=CCC4C(C)C(O)CC[C@]4(C)[C@H]3CC[C@]12C` (some centres unmarked) [Test sample 3, 4-Methylcholest-7-en-3-ol] are 0.71 ± 0.08 µM and 6.2 ± 1.9.
As to `CC(C)CCCC(C)C1CCC2(C)C3CCC4C(C)(C)C(O)CCC45CC35CCC12C` (centres unmarked) [Test sample 1, 9,19-Cyclolanostan-3-ol], in the experiment on ApoE gene-deficient mice [1], the “Amount of lipid peroxide in blood” value was determined as 0.62 ± 0.01 µM. The “Number of plaques formed” value in the experiment on ApoE gene-deficient mice [2] is given as 6.0 ± 0.7.
For `CC[C@H](C)C(=O)O[C@H]1C[C@H](O)C=C2C=C[C@H](C)[C@H](CC[C@@H](O)C[C@@H](O)CC(=O)[O-])[C@H]21.[Na+]` [Control sample, reference compound], the “effect of inhibiting formation of a lipid peroxide in blood compared with the negative sample” value in the experiment on ApoE gene-deficient mice [1] (serum TBARS, 14 days after start of oral administration) is listed as “a significant decrease in amount of a lipid peroxide in blood was not observed”. Further, in the experiment with ApoE gene-deficient mice [1], the “Amount of lipid peroxide in blood” value was 0.93 ± 0.05 µM. In the experiment with ApoE gene-deficient mice [2], the “plaque formation compared with the negative sample” value is “no significant difference” and the “Number of plaques formed” value is 10.6 ± 3.2.
